Experimental data taken from ChEMBL document CHEMBL1201862, “PubChem BioAssay data set” (2004).
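Cultured in 96-well plates, cells were exposed to test compound for 48 hours across five concentrations. GI50: concentration for 50% inhibition of growth.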 The source made the active and inactive calls. No stated cut-off is given here; in the data, active = GI50 up to about 1.1 µM and inactive = higher.

Legend:
Test in all cases: NCI tumour cell line growth inhibition, 48 h
HOP-18 = system: HOP-18
DLD-1 = system: DLD-1
HCT-15 = system: HCT-15
KM12 = system: KM12
SNB-78 = system: SNB-78
DMS-114 = system: DMS-114
786-0 = system: 786-0
TK-10 = system: TK-10
ACHN = system: ACHN
LXFL 529 = system: LXFL 529
SF-268 = system: SF-268
SF-295 = system: SF-295
NCI-H23 = system: NCI-H23
Malme-3M = system: Malme-3M
HOP-92 = system: HOP-92
HT-29 = system: HT-29
SK-MEL-2 = system: SK-MEL-2
M14 = system: M14
OVCAR-3 = system: OVCAR-3
CAKI-1 = system: CAKI-1
OVCAR-4 = system: OVCAR-4
U-251 = system: U-251
OVCAR-5 = system: OVCAR-5
K562 = system: K562
OVCAR-8 = system: OVCAR-8
HCT-116 = system: HCT-116
HOP-62 = system: HOP-62
SN12C = system: SN12C
M19-MEL = system: M19-MEL
KM-20L2 = system: KM-20L2
SNB-75 = system: SNB-75
DMS-273 = system: DMS-273
RPMI-8226 = system: RPMI-8226
RXF 393 = system: RXF 393
MOLT-4 = system: MOLT-4
XF498 = system: XF498
LOX IMVI = system: LOX IMVI
SF-539 = system: SF-539
UO-31 = system: UO-31
IGROV-1 = system: IGROV-1
SNB-19 = system: SNB-19
EKVX = system: EKVX
SK-OV-3 = system: SK-OV-3
NCI-H460 = system: NCI-H460
COLO 205 = system: COLO 205
UACC-257 = system: UACC-257
UACC-62 = system: UACC-62
HCC 2998 = system: HCC 2998
A549 = system: A549
SR = system: SR
SK-MEL-28 = system: SK-MEL-28
SK-MEL-5 = system: SK-MEL-5
NCI-H226 = system: NCI-H226
SW-620 = system: SW-620
HL-60 = system: HL-60
CCRF-CEM = system: CCRF-CEM
NCI-H522 = system: NCI-H522
A498 = system: A498

In the case of `O=c1cnn2c(n1)sc1ccc3ccccc3c12`, the GI50 (HOP-18) is reported as > 100 µM (inactive), the GI50 (DLD-1) is reported as > 100 µM (inactive) and the GI50 (HCT-15) is reported as over 100 µM. For the same compound, the GI50 (KM12) was > 100 µM (inactive), the GI50 (SNB-78) was > 100 µM (inactive) and the GI50 (DMS-114) was > 100 µM (inactive). For the same compound, the GI50 (786-0) was > 100 µM (inactive), the GI50 (TK-10) was > 100 µM (inactive) and the GI50 (ACHN) was > 100 µM (inactive). The GI50 (LXFL 529) was > 100 µM (inactive), the GI50 (SF-268) was > 100 µM (inactive) and the GI50 (SF-295) was > 100 µM (inactive). For the same compound, the GI50 (NCI-H23) was > 100 µM (inactive), the GI50 (Malme-3M) was > 100 µM (inactive) and the GI50 (HOP-92) was > 100 µM (inactive). The GI50 (HT-29) was > 100 µM (inactive), the GI50 (SK-MEL-2) was > 100 µM (inactive) and the GI50 (M14) was > 100 µM (inactive). The GI50 (OVCAR-3) was > 100 µM (inactive), the GI50 (CAKI-1) was > 100 µM (inactive) and the GI50 (OVCAR-4) was > 100 µM (inactive). For the same compound, the GI50 (U-251) was > 100 µM (inactive), the GI50 (OVCAR-5) was > 100 µM (inactive) and the GI50 (K562) was > 100 µM (inactive). The GI50 (OVCAR-8) was > 100 µM (inactive), the GI50 (HCT-116) was 87.9 µM (inactive) and the GI50 (HOP-62) was 98.9 µM (inactive). The GI50 (SN12C) was > 100 µM (inactive), the GI50 (M19-MEL) was > 100 µM (inactive) and the GI50 (KM-20L2) was > 100 µM (inactive). The GI50 (SNB-75) was > 100 µM (inactive), the GI50 (DMS-273) was > 100 µM (inactive) and the GI50 (RPMI-8226) was > 100 µM (inactive). The GI50 (RXF 393) was > 100 µM (inactive), the GI50 (MOLT-4) was 30.1 µM (inactive) and the GI50 (XF498) was > 100 µM (inactive). For the same compound, the GI50 (LOX IMVI) was 76.6 µM (inactive), the GI50 (SF-539) was > 100 µM (inactive) and the GI50 (UO-31) was > 100 µM (inactive). The GI50 (IGROV-1) was > 100 µM (inactive), the GI50 (SNB-19) was > 100 µM (inactive) and the GI50 (EKVX) was 25.1 µM (inactive). For the same compound, the GI50 (SK-OV-3) was > 100 µM (inactive), the GI50 (NCI-H460) was 61.2 µM (inactive) and the GI50 (COLO 205) was > 100 µM (inactive). The GI50 (UACC-257) was > 100 µM (inactive), the GI50 (UACC-62) was > 100 µM (inactive) and the GI50 (HCC 2998) was > 100 µM (inactive). For the same compound, the GI50 (A549) was 65.6 µM (inactive), the GI50 (SR) was 59.4 µM (inactive) and the GI50 (SK-MEL-28) was > 100 µM (inactive). The GI50 (SK-MEL-5) was > 100 µM (inactive), the GI50 (NCI-H226) was > 100 µM (inactive) and the GI50 (SW-620) was > 100 µM (inactive). The GI50 (HL-60) was 83.9 µM (inactive) and the GI50 (CCRF-CEM) was 63.5 µM (inactive).
In the case of `CCO/C=C1\N=C(c2ccccc2Br)OC1=O`, the GI50 (DLD-1) is reported as > 100 µM (inactive), the GI50 (HCT-15) is reported as over 100 µM and the GI50 (KM12) is reported as > 10 µM (inactive). The GI50 (SNB-78) was > 100 µM (inactive), the GI50 (DMS-114) was > 100 µM (inactive) and the GI50 (786-0) was > 100 µM (inactive). For the same compound, the GI50 (TK-10) was > 100 µM (inactive), the GI50 (ACHN) was > 100 µM (inactive) and the GI50 (LXFL 529) was > 100 µM (inactive). The GI50 (SF-268) was > 100 µM (inactive), the GI50 (SF-295) was > 100 µM (inactive) and the GI50 (NCI-H23) was > 100 µM (inactive). The GI50 (Malme-3M) was > 100 µM (inactive), the GI50 (HOP-92) was > 100 µM (inactive) and the GI50 (HT-29) was > 100 µM (inactive). For the same compound, the GI50 (SK-MEL-2) was > 100 µM (inactive), the GI50 (M14) was > 100 µM (inactive) and the GI50 (OVCAR-3) was > 100 µM (inactive). For the same compound, the GI50 (CAKI-1) was > 100 µM (inactive), the GI50 (OVCAR-4) was > 100 µM (inactive) and the GI50 (OVCAR-5) was > 100 µM (inactive). For the same compound, the GI50 (K562) was > 100 µM (inactive), the GI50 (OVCAR-8) was > 100 µM (inactive) and the GI50 (HOP-62) was > 100 µM (inactive). For the same compound, the GI50 (NCI-H522) was > 100 µM (inactive), the GI50 (SN12C) was > 100 µM (inactive) and the GI50 (M19-MEL) was > 100 µM (inactive). The GI50 (KM-20L2) was > 100 µM (inactive), the GI50 (SNB-75) was > 100 µM (inactive) and the GI50 (DMS-273) was > 100 µM (inactive). The GI50 (RPMI-8226) was > 100 µM (inactive), the GI50 (RXF 393) was > 100 µM (inactive) and the GI50 (MOLT-4) was > 100 µM (inactive). The GI50 (XF498) was > 100 µM (inactive), the GI50 (LOX IMVI) was > 100 µM (inactive) and the GI50 (SF-539) was > 100 µM (inactive). For the same compound, the GI50 (UO-31) was > 100 µM (inactive), the GI50 (A498) was > 100 µM (inactive) and the GI50 (SNB-19) was > 100 µM (inactive). The GI50 (EKVX) was > 100 µM (inactive), the GI50 (SK-OV-3) was > 100 µM (inactive) and the GI50 (NCI-H460) was > 100 µM (inactive). The GI50 (COLO 205) was > 100 µM (inactive), the GI50 (UACC-257) was > 100 µM (inactive) and the GI50 (UACC-62) was > 100 µM (inactive). For the same compound, the GI50 (HCC 2998) was > 100 µM (inactive), the GI50 (A549) was > 100 µM (inactive) and the GI50 (SK-MEL-28) was > 100 µM (inactive). For the same compound, the GI50 (NCI-H226) was > 100 µM (inactive), the GI50 (SW-620) was > 100 µM (inactive) and the GI50 (HL-60) was > 100 µM (inactive). The GI50 (CCRF-CEM) was > 100 µM (inactive).
